Source: US20080039410A1, “Inositol 1,4,5-Trisphosphate Receptor Mutants and Uses Thereof” (priority 2004, published 2008)
“Also recorded” adds a separate entry of the source. Where two headings read alike, the source gives them in different places.

Experiments:
S2− InsP3R-1 [1] = experiment: Phosphorylation of Ser-1755 after forskolin in transfected HEK-293 cells (immunoprecipitation, Western blot); type: cell-based, rat; details: 20 μM forskolin 10 min, α-phospho-Ser-1755 blot
Procedure: HEK-293 cells were plated onto 25-cm^2 culture flasks and allowed to grow to near-confluency. Cells were transfected with 5 μg of each S2− InsP3R-1 DNA construct by using the LipofectAMINE reagent (Invitrogen) as per the manufacturer's instructions. The following day, batches of cells were treated in the presence or absence of 20 μM forskolin for 10 min, aspirated from flasks, lysed, and immunoprecipitated with a polyclonal α-InsP3R-1 antibody that recognizes amino acids 2731-2749 of InsP3R-1. Immunoprecipitates were separated on 5% SDS gels transferred to nitrocellulose and then probed with either the α-InsP3R-1 antibody or a polyclonal antibody that recognizes the phosphorylated state of Ser-1755 (39) (α-phospho-Ser-1755), kindly provided by Dr. S. Snyder. Blots that were probed with a-phospho-Ser-1755were stripped and reprobed with the α-InsP3R-1 antisera to confirm the presence and relative quantity of the InsP3R-1.
The enhanced apparent sensitivity of individual phosphomimetic mutants was essentially equal and intermediate between the sensitivity of the S2−WT and S2−EE mutations. […] To address this possibility directly, experiments were performed evaluating the effects of activating endogenous PKA in cells expressing S2−SE or S2−ES to mimic prior phosphorylation of an individual site. […] To test this, experiments were performed to determine the phosphorylation state of the various mutants after raising cAMP levels. These experiments were performed in HEK-293 cells because of the high transfection efficiency and low endogenous levels of InsP3R-1 (47, 99). […] Following incubation of the lysates with α-InsP3R-1 antibody, the immune complexes were captured and separated on SDS gels, and the phosphorylation status of Ser-1755 was determined by Western blotting with an antibody that specifically recognizes this phosphorylated residue in InsP3R-1 (39).

S2− InsP3R-1 [2] = experiment: CCh concentration-response of Ca2+ release in Dt-40 3ko cells expressing m3R and S2− InsP3R-1 constructs; type: cell-based, rat; details: for maximum peak Δ response to CCh: Fura-2 340/380 ratio; for fold change from WT (CCh EC50): S2 − InsP3R-1 constructs, Table 2; for EC50: fit of normalized initial peak, read-out: EC50 for CCh-induced Ca^2+ release
Source text: The rat S2^+ InsP3R-1 in the expression plasmid pIRES-GFP was digested with the restriction endonuclease SalI. The overhang created by digestion was blunted by using T4 polymerase. An EcoRI linker was then ligated onto the blunted ends of the construct. The entire receptor DNA was excised from the plasmid using EcoRI and ligated into the plasmid MXT-1. The region containing the S2^− splice variant and potential PKA phosphorylation sites was excised from its backbone in pCDNA 3.1+ by RsrII and KasI and ligated into the InsP3R construct in MXT-1. The potential PKA phosphorylation sites Ser-1589 and Ser-1755 were mutated, individually in both splice variants and together in the S2^− splice variant, to alanines or glutamates by using sequential PCR mutagenesis. The outside primers used for the mutagenesis reaction flanked the restriction sites RsrII and KasI. Following mutation, the resulting fragments were cut with RsrII and KasI and inserted into the InsP3R-1 backbone at the corresponding sites. The mutations were confirmed by Big Dye fluorescent sequencing. Mutated receptor DNAs were excised from MXT-1 by using EcoRI and ligated into the mammalian expression vector pGW (provided by Dr. David Yue, Johns Hopkins University). Orientation was confirmed by using restriction enzyme digestion. Mutants were named based on the splice variant, either S2+ or S2− followed by the amino acid present at position 1589 and 1755. Thus, a mutation in S2^+ InsP3R-1 S1755E is designated, “S2+SE,” and in InsP3R-1 […] S1755A is designated “S2^−SA”. Similarly, an S2− InsP3R-1 with mutations in both S1589E and S1755E is designated “S2−EE”. The numbering of residues is based on the full-length rat InsP3R-1.
Dt-40 cells lacking all three InSP3 receptor subtypes were transfected by using electroporation at 350 V and 950 microfarads (4-mm gap cuvette). 2×10^7 cells were co-transfected with 25 μg of the InsP3R-1 cDNA, 25 μof the muscarinic type 3 (m3R) receptor DNA, and 4 μg of the red fluorescent protein plasmid pHcRed1-N1 (Clontech). Cells were incubated with DNA in 500 μl of Opti-MEM media (Invitrogen) on ice for 10 min. The cell/DNA mixture was electroporated, incubated on ice for 30 min, increased to 5 ml with Opti-MEM, and placed in a 5% CO2 incubator at 39° C. for 5 h. The cells were then centrifuged and resuspended in 12 ml of complete RPMI media (Invitrogen). Transfection efficiency was typically ˜20%. Experiments were performed within 32 h of transfection.
Transfected Dt-40 3ko cells were washed once in a HEPES-buffered physiological saline solution (HEPES-PSS) containing (in mM) 5.5 glucose, 137 NaCl, 0.56 MgCl2, 4.7 KCl, 1 Na2HPO4, 10 HEPES (pH 7.4), 1.2 CaCl2, and 1% w/v bovine serum albumin. Cells were then resuspended in bovine serum albumin HEPES-PSS with 1 μM Fura-2 (AM), placed on a 15-mm glass coverslip in a low volume perfusion chamber, and allowed to adhere for 30 min at room temperature. Cells were perfused continuously for 10 min with HEPES-PSS before experimentation to allow complete Fura-2 de-esterification. A field of cells for each experiment was chosen that contained a wide range of transfection efficiency based upon the intensity of red fluorescence emitted when excited at 560 nm. Individual cells that had emission gray levels between 1500 and 2500 were subsequently chosen to standardize expression levels. [Ca^2+]i imaging was performed essentially as described previously by using an inverted epifluorescence Nikon microscope with a 40× oil immersion objective lens (numerical aperture, 1.3) (100). Cells were excited alternately with light at 340 and 380±10 nm bandpass filters (Chroma, Rockingham, Vt.) using a monochrometer (TILL Photonics, Pleasanton, Calif.). Fluorescence images were captured and digitized with a digital camera driven by TILL Photonics software. Images were captured every 2 s with an exposure of 2 ms and 4 by 4 binning. 340/380 ratio images were calculated online and stored immediately to a hard disk. […]

[3] = listed as S1589E/S1755E mutant InsP3R-1

Substance | phosphorylation of Ser-1755 after forskolin (S2− InsP3R-1 [1]) | maximal response in full CCh concentration-response curve (S2− InsP3R-1 [2]) | sensitivity of CCh-induced Ca^2+ release relative to other constructs (S2− InsP3R-1 [2]) | maximum peak Δ response to CCh (S2− InsP3R-1 [2]) | fold change from WT (CCh EC50) (S2− InsP3R-1 [2]) | EC50 (S2− InsP3R-1 [2]) | fold more sensitive than nonphosphorylatable S1589A/S1755A S2− InsP3R-1 (S2− InsP3R-1 [2]; listed as S2− mutant) | fold more sensitive than wild type S2− InsP3R-1 (CCh-induced Ca^2+ release) (S2− InsP3R-1 [2]; listed as S2− mutant) | fold more sensitive than nonphosphorylatable S1589A/S1755A S2− InsP3R-1 (S2− InsP3R-1 [2]; [3]) | fold more sensitive than wild type S2− InsP3R-1 (CCh-induced Ca^2+ release) (S2− InsP3R-1 [2]; [3]) | sensitivity of CCh-induced Ca^2+ release relative to other constructs (S2− InsP3R-1 [2]; [3]) | fold more sensitive than wild type S2− InsP3R-1 (CCh-induced Ca^2+ release) (S2− InsP3R-1 [2]) | phosphorylation of Ser-1755 after forskolin (S2− InsP3R-1 [1]; listed as S2−InsP3R-1) | phosphorylation of Ser-1755 after forskolin (S2− InsP3R-1 [1]; listed as wild type S2^−InsP3R-1)
G1690A: InsP3R-1 S2− variant with glycine to alanine substitution at position 1690 (nucleotide binding site mutant) | not susceptible to phosphorylation; also recorded: not phosphorylated | comparable to that seen in the wild-type receptor | – | – | – | – | – | – | – | – | – | – | – | –
S2−EE: phosphomimetic S1589E/S1755E mutant of the short splice variant | no phosphorylation | – | greatest | 1.13+0.1 ratio units | 7.6 fold | 4.3 nM | ~50 fold | 7.5 fold | approximately 35 fold | approximately 7.5 fold | markedly potentiated Ca^2+ release | – | – | –
S2−ES: phosphomimetic short splice variant S1589E | no phosphorylation; also recorded: lack of phosphorylation | – | intermediate sensitivity | 0.54±0.1 ratio units | 2.6 fold | 12.4 ± 0.5 nM | – | – | – | – | – | ~3 fold | – | –
S2−SE: phosphomimetic short splice variant of S1755E | no phosphorylation | – | intermediate sensitivity | 0.78±0.1 ratio units | 2.4 fold | 13.5 ± 1 nM | – | – | – | – | – | ~3 fold | – | –
S2−WT: wild-type rat type-1 InsP3 receptor, peripheral short S2− splice variant (SEQ ID NO: 17) | – | – | – | 0.9±0.1 ratio units | 1 fold | 32.6 ± 7.5 nM | – | – | – | – | – | – | results in phosphorylation | robustly phosphorylated
